Results: publication PMC12391581 (Antiviral Research, 2025)
Where two headings read alike, the source gives them in different places.

Columns and labels:
[1] = system: B/Victoria-lineage viruses; assay type: cell-based
[2] = system: neuraminidase (NA) of B/Victoria-lineage viruses; assay type: biochemical, influenza B/Victoria-lineage virus
[3] = system: neuraminidase (NA) of A(H3N2) viruses; settings: cited from earlier work
[4] = system: neuraminidase (NA) of B/Victoria-lineage viruses; settings: cited from earlier work

SMILES | EC50 fold-change compared to reference median EC50 values [1] | NAI inhibition phenotype (NI/RI/HRI) [2] | NAI inhibition phenotype (NI/RI/HRI) [3] | NAI inhibition phenotype (NI/RI/HRI) [4]
COC(=O)OCOc1c2n(ccc1=O)N([C@@H]1c3ccccc3SCc3c1ccc(F)c3F)[C@@H]1COCCN1C2=O [Baloxavir, baloxavir marboxil] | 3.09–7.93 fold |  |  | 
CCOC(=O)C1=C[C@@H](OC(CC)CC)[C@H](NC(C)=O)[C@@H](N)C1 [Oseltamivir, oseltamivir] |  | RI (key: normal inhibition (NI) is a <5-fold increase in the NAI IC50; RI is a 5- to 50-fold increase; HRI is a >50-fold increase) |  | 
CC(=O)N[C@H]1[C@H]([C@H](O)[C@H](O)CO)OC(C(=O)O)=C[C@@H]1N=C(N)N [Zanamivir, zanamivir] |  | RI (key: normal inhibition (NI) is a <5-fold increase in the NAI IC50; RI is a 5- to 50-fold increase; HRI is a >50-fold increase) | NI/RI | NI/RI
